Measurements published in US7345069B2, “Oxidative activation and episulfonium ion-mediated DNA alkylation-based anticancer” (Wisconsin Alumni Research Foundation, priority 2004, dated 2008).
Where two headings read alike, the source gives them in different places.

Experiments:
LNCaP cells [1] = test: Growth inhibition by DNA assay, LNCaP cells in androgen-depleted medium, untreated or pretreated with R1881 (with or without vitamin E succinate); type: cell-based
Experimental: To test whether TG-25 was activated under oxidative stress, LNCaP cells were grown in androgen-depleted medium in the presence of 0.01 nM and 1 nM androgen analog R1881 for 96 h. […] This concentration was also close to the range of concentration of the active androgen dihydrotestosterone found in normal human male and patients treated with androgen ablation therapy. The growth inhibitory effect of LNM and TG-25 against LNCaP cells either untreated or pretreated with R1881 as shown in FIG. 9 and FIG. 10, respectively. Under these treatment conditions, 0.01 nM R1881 stimulated growth by about 30% and 1 nM R1881 inhibited cell growth to about 40% of the control untreated cells. The data shown in FIG. 9 and FIG. 10 are normalized for the growth stimulatory or inhibitory effects of R1881 alone.
The effect of LNM and TG-25 against LNCaP cells pretreated with both R1881 and α-tocopherol succinate are shown in FIG. 11 and FIG. 12, respectively. All data for pretreated cells were normalized for the growth inhibition induced by α-tocopherol succinate plus R1881.

LNCaP cells [2] = conditions: cited from earlier work; for cellular ROS level: 96 h
DU-145 cells = test: Growth inhibition by DNA fluorescence assay, cells grown in 5% FBS, 72 h after drug treatment; type: cell-based; conditions: DNA fluorescence 72 h after drug treatment
Experimental: The growth inhibitory effects of LNM against LNCaP and DU-145 cell lines grown in 5% FBS were determined by measuring DNA fluorescence 72 h after drug treatment. […] Growth inhibitory effects of LNM against LNCaP and DU-145 cells were expressed as percent of control untreated cells are shown in FIG. 7.

[3] = tested on: immortalized normal prostatic epithelial cells (E6); test: Growth inhibition by DNA assay, immortalized normal prostatic epithelial cells (E6); type: cell-based
[4] = In vitro oxidation of purified TG-25 on exposure to O2; type: physicochemical; conditions: aqueous or methanol solution
Excerpt: Three additional minor metabolites were also characterized from the ΔlnmE strain, and their structures were elucidated by the combination of MS, ^1H- and ^13C—NMR, and various 2D NMR spectroscopic methods as discussed above (compound 1, 2, 4, and 5 as shown in FIG. 6) Although these compounds were isolated in minor quantities and were apparently derived from TG-25 during the isolation, their structures were critical in helping to define the oxidative activation of TG-25 undergo rearrangement via an episulfornium ion intermediate (FIG. 6). It was clear by comparing the structure of TG-25 with those of 1 and 2 that an oxidation step was required for their conversion. Isolation of compound 4 shed light into how this oxidative rearrangement from TG-25 to 1 or 2 actually happens. Thus, as depicted in FIG. 6 TG-25 apparently was first oxidized by O2 to form the dimmer 4, activating the sulfhydryl group into a disulfide. Nucleophilic attack of the disulfide by the double bond could then be envisaged to form an episulfonium ion intermediate, in a mechanistic analogy to LNM, that subsequently could be trapped by H2O (leading the formation of 1) or methanol (leading to the formation of 2). This hypothesis was confirmed by re-producing the chemistry in vitro with purified TG-25.

Structure (SMILES): C[C@]1(O)CC[C@H]2[C@@H]3CCC4=CC(=O)CCC4=C3C=C[C@@]21C [Compound R1881]
- growth stimulation by R1881 alone (LNCaP cells [1]; 0.01 nM R1881, 96 h, androgen-depleted medium): about 30%
- cell growth with R1881 alone (LNCaP cells [1]; 1 nM R1881, 96 h, androgen-depleted medium): about 40 % of the control untreated cells
- cellular ROS level (LNCaP cells [2]; 0.01 nM R1881, LNCaP cells): reduces the cellular ROS
- cellular ROS level (LNCaP cells [2]; 1 nM R1881, LNCaP cells): increases cellular ROS level

Structure (SMILES): C/C1=C\[C@@H](O)C(=O)/C=C/C=C\c2csc(n2)[C@@H](C)NC(=O)C[C@@]2(CC1)[S+]([O-])SC(=O)[C@]2(C)O (stereo partly drawn) [LNM, leinamycin]
- sensitivity of DU-145 cells compared with LNCaP cells (DU-145 cells): slightly more sensitive to LNM
- IC50 ([3]; Epithelial cell, read-out: IC50, growth inhibition): < 0.0002 µM
- growth inhibitory effect compared with the prostate cancer cell lines ([3]; immortalized normal prostatic epithelial cells vs LNCaP and DU-145): stronger growth inhibitory effect
- growth inhibitory effect in androgen depleted medium compared with 5% FBS (LNCaP cells [1]; LNCaP cells): more pronounced
- influence of R1881 pretreatment on growth inhibition (LNCaP cells [1]; LNCaP cells pretreated with 0.01 nM or 1 nM R1881): not appreciably affected
- influence of α-tocopherol succinate on growth inhibition (LNCaP cells [1]; LNM alone or in combination with R1881, LNCaP cells): no effect

Structure (SMILES): C/C1=C\CC(=O)/C=C/C=C\c2csc(n2)[C@@H](C)NC(=O)C[C@@](S)(C(C)C(=O)O)CC1 (stereo partly drawn) [TG-25]
- growth inhibitory effect ([3]; immortalized normal prostatic epithelial cells, up to μM concentration): little growth inhibitory effect even at μM concentration
- IC50 (LNCaP cells [1]; Homo sapiens, LNCaP cells pretreated with 1 nM androgen analog R1881, read-out: IC50, growth inhibition of LNCaP prostate cancer cells): 5 to 10 µM
- growth inhibitory effect after co-pretreatment with R1881 and vitamin E (α-tocopherol succinate) (LNCaP cells [1]; LNCaP cells pretreated with 1 nM R1881 plus α-tocopherol succinate, normalized for pretreatment alone): completely reverses the growth inhibitory effect
- growth inhibitory effect against cells pretreated with 0.01 nM R1881 (LNCaP cells [1]; LNCaP cells, 0.01 nM R1881 for 96 h): no effect
- growth inhibitory effect against R1881 pretreated cells (LNCaP cells [1]; LNCaP cells, R1881 pretreated (high oxidative stress)): markedly inhibited the growth
- growth inhibitory effect against control untreated cells (LNCaP cells [1]; LNCaP cells, androgen-depleted medium, no R1881): no effect
- conversion upon exposure to O2 [4]: rapidly converted to 1 or 2

Structure (SMILES): Cc1c(C)c2c(c(C)c1OC(=O)CCC(=O)O)CCC(C)(CCCC(C)CCCC(C)CCCC(C)C)O2 (stereo not drawn) [α-tocopherol (vitamin E) succinate]
- effect on the increase in ROS level by 1 nM R1881 pretreatment (LNCaP cells [2]; co-treatment of LNCaP cells): can be inhibited
